Laboratory results taken from EP1228058B1, “BENZOPYRANYL GUANIDINE DERIVATIVES, PROCESS FOR PREPARATION THEREOF, AND PHARMACEUTICAL COMPOSITIONS CONTAINING THEM” (Dongbu Hannong Chemical Co., Ltd., priority 1999, dated 2001).

Experiments:
RAW 264.7 cells = experiment: Inhibition of LPS-induced NO production (Griess reagent); assay type: cell-based, murine; conditions: Mus musculus, RAW264.7, 100 uM, 24 hours
Method: Using RPMI1640 media supplemented with 10% fetal bovine serum (FBS), RAW 264.7 cells (obtained from American Type Culture Collection), a murine macrophage cell line, were cultured at 37 °C in a 5% CO2 incubator. The RAW264.7 cells were harvested and cell density was adjusted to 5x10^5/ml with a RPMI medium supplemented with 0.5% FBS and plated at 5x10^4 cells/well to 96-well plates, which were then cultured for 20 hr in a CO2 incubator. After removal of the media, the cells were pre-treated for 1 hour with fresh media containing 33 uM and 100 uM of test compounds. The test compounds were dissolved in DMSO and diluted to respective concentration in the media. In order to minimize DMSO effect on the nitric oxide formation by the RAW264.7 cells in the wells, the media were allowed to contain DMSO at a concentration of 0.1 % or less.
After completion of one hour pre-treatment, lipopolysaccharide (LPS, E. coli serotype 055:B5) was added to activate the cells, which were, then, maintained for 24 hours in a CO2 incubator. As a result of the activation of RAW264.7 cells with LPS, NO was formed. The NO released into the media was in a form of nitrite NO2^- and quantitatively measured using the Griess reagent. A control was treated only with vehicle instead of test compounds.
The inhibitory effects of the test compounds against NO production were determined as the reduction of NO quantity compared with that of the control group.

[1] = Acute oral toxicity test in rats; conditions: rat, in vivo, single oral dose in 0.5% methyl cellulose, read-out: lethal dose (LD50) for oral administration
How it was run: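 Six-week-old SPF SD rats, two per group, received a single oral dose of 1 g/kg suspended in 0.5% methyl cellulose (10 ml/kg). Survivors at the end of observation underwent haematology, serum chemistry, necropsy and histopathology of vital organs with macroscopic lesions.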

rat brain homogenate = experiment: Inhibition of iron-induced lipid peroxidation (MDA quantification); assay type: biochemical; conditions: 100 uM; FeCl2 400 uM, 37 °C, 30 min
Method: The rat brain was homogenized in a Krebs buffer (15 mM HEPES, 10 mM glucose, 140 mM NaCl, 3.6 mM KCl, 1.5 mM CaCl2, 1.4 mM KH2PO4, 0.7 mM MgCl2, pH 7.4) and the supernatant separated by centrifugation at 12,000 rpm for 10 min. was used for further experiments. FeCl2 was added to a final concentration of 400 uM in the brain homogenate which was then allowed to stand at 37 °C for 30 min. for the facilitation of oxidation. Each of the test compounds was added at a concentration of 100 uM and vehicle was used as a control.
Iron facilitates the oxidation of the brain homogenate to produce malondialdehyde (MDA), a lipid peroxidation product. Thus, the lipid peroxidation was determined by MDA quantification. The inhibitory effect of the test compounds against the lipid peroxidation was evaluated by calculating MDA reduction rate of the test compounds compared with that of the control group.
Typically, the MDA quantification is achieved by reacting samples with 2-thiobarbituric acid (TBA) and measuring the absorbance at 530 nm. However, this method is unsuitable to treat samples on a large scale because of a boiling step. Thus, in this experiment, N-methyl-2-phenylindole was used instead of TBA. […] Bioxytech^R LPO-586 Kit was used for MDA quantification.

[2] = test system: Rat aortic smooth muscle cells; experiment: Inhibition of proliferation of vascular smooth muscle cells ([3H]-thymidine incorporation into DNA); assay type: cell-based; conditions: [^3H]-thymidine into DNA; angiotensin II (10^-7M) stimulated = 100; 72 hr; 4320 min
Method: Inhibitory effects on cell proliferation was evaluated by measurement of incorporation of [^3H]-thymidine into DNA. Rat aortic smooth muscle cells were grown in 24 well plate for 3 days to near confluence in DMEM containing 10% FBS, then DMEM containing FBS was washed out. Cells were cultured again in DMEM without serum for 48 hr to be quiescent. […] During the last 4 hours of incubation, [^3H]-thymidine (1 uCi/ml) was added. […] The samples were filtered through glass microfiber filter (GF/B. Whatmann) under vacuum. After washing the filters 3 times with 2 ml of an aqueous solution of 5% TCA, the radioactivity incorporated into DNA was counted by Liquid Scintillation Counter (Packard, TRI-CARB, 2100TR), then calculated incorporation % of [^3H]-thymidine.

COC(OC)[C@]1(C)Oc2ccc([N+](=O)[O-])cc2[C@@H](NC(=NC#N)Nc2cccc(C(F)(F)F)c2)[C@@H]1O [Example 7, (2R, 3S, 4R)-N''-cyano-N-(6-nitro-3,4-dihydro-3-hydroxy-2-methyl-2-dimethoxymethyl-2H-benzopyran-4-yl)-N'-(3-trifluoromethylphenyl)guanidine]
inhibition at 100 µM (RAW 264.7 cells): 88% | LD50 [1]: > 1000 mg/kg | % Inhibition (rat brain homogenate): 70% | Incorporation % [2]: 37.8%
